The numbers were not newly measured in patent US8288366B2, “Formulation for hair growth” (priority 2006, dated 2012), which cites them from elsewhere.

This data set deals with mice with a mutant hairless gene. Particulars: applied topically.

Turning to `N[C@@H](Cc1cc(I)c(Oc2ccc(O)c(I)c2)c(I)c1)C(=O)O` [T3, triiodothyronine], the hair growth entry was “stimulate hair growth”.
